Results taken from ChEMBL document CHEMBL3774354, “Discovery of Selective Histone Deacetylase 6 Inhibitors Using the Quinazoline as the Cap for the Treatment of Cancer” (J Med Chem, 2016).
pEC50, pIC50: −log10 of the molar value. The source made the active and inactive calls. The rule behind the calls is not given here.

Tests used:
Mus musculus [1] = test: Toxicity in Balb/c nude mouse xenografted with human HCT116 cells assessed as death at 50 mg/kg, iv q2d for 9 days; assay type: organism-based, HCT-116; conditions: in vivo, 216 h
Mus musculus [2] = test: Toxicity in Balb/c nude mouse xenografted with human HCT116 cells assessed as death at 25 mg/kg, po q2d for 8 days; assay type: organism-based, HCT-116; conditions: in vivo, 192 h
Mus musculus [3] = test: Toxicity in NOD/SCID mouse xenografted with human Ramos cells assessed as death at 40 mg/kg, po q2d for 6 days; assay type: organism-based; conditions: in vivo, 144 h
Ramos [4] = test: Antitumor activity against human Ramos cells xenografted in orally dosed NOD/SCID mouse assessed as tumor mass reduction administered as q2d for 6 days; assay type: functional, organism-based
[5] = target: T1, Protein deacetylase HDAC6 (Homo sapiens) (UniProt Q9UBN7); test: Inhibition of HDAC6 in human MV4-11 cells assessed as upregulation of alpha- tubulin acetylation after 6 hrs by Western blot analysis; assay type: cell-based
T1 sequence (whole entry): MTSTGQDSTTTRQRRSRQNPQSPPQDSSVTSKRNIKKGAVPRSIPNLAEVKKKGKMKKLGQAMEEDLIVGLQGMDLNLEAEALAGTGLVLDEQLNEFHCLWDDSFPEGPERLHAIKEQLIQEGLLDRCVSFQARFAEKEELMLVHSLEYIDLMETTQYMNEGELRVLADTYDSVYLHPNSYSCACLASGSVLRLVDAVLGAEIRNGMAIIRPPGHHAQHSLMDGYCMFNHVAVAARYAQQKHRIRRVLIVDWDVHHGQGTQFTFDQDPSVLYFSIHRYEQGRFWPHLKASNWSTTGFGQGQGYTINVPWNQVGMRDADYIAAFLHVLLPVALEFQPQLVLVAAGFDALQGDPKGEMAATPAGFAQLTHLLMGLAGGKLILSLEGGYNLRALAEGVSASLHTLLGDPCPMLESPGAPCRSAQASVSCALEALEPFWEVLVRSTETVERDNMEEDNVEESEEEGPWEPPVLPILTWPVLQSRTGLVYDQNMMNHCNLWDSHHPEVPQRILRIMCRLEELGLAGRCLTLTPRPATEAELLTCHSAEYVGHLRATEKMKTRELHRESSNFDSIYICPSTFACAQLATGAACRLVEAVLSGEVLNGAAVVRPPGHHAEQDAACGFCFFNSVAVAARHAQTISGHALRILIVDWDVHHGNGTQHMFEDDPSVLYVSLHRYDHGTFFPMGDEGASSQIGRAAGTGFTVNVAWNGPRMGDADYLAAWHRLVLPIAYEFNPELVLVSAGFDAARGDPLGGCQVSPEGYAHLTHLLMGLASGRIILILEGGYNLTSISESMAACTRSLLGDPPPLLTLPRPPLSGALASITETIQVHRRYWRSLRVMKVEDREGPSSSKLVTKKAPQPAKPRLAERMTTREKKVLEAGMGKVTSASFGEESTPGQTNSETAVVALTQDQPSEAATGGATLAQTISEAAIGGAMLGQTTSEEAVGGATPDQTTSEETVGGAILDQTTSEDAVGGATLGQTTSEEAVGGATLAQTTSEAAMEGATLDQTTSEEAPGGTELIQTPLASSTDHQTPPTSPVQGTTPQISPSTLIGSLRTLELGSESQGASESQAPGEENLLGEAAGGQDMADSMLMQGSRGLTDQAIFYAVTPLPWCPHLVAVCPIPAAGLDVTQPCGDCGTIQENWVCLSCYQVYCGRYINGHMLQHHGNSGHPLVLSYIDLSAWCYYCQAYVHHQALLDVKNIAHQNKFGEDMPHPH

HeLa [6] = test: Induction of histone H3 acetylation in human HeLa cells incubated for 6 hrs by cytoblot assay; assay type: functional, cell-based
HeLa [7] = test: Antiproliferative activity against human HeLa cells after 72 hrs by MTT assay; assay type: functional, cell-based
Histone deacetylase 4 = Histone deacetylase 4 (Homo sapiens, UniProt P56524); test: Inhibition of recombinant HDAC4 (unknown origin) using AMC labeled AC-peptide as substrate incubated for 1 hr by fluorescence analysis
Histone deacetylase 4, sequence (P56524 whole entry): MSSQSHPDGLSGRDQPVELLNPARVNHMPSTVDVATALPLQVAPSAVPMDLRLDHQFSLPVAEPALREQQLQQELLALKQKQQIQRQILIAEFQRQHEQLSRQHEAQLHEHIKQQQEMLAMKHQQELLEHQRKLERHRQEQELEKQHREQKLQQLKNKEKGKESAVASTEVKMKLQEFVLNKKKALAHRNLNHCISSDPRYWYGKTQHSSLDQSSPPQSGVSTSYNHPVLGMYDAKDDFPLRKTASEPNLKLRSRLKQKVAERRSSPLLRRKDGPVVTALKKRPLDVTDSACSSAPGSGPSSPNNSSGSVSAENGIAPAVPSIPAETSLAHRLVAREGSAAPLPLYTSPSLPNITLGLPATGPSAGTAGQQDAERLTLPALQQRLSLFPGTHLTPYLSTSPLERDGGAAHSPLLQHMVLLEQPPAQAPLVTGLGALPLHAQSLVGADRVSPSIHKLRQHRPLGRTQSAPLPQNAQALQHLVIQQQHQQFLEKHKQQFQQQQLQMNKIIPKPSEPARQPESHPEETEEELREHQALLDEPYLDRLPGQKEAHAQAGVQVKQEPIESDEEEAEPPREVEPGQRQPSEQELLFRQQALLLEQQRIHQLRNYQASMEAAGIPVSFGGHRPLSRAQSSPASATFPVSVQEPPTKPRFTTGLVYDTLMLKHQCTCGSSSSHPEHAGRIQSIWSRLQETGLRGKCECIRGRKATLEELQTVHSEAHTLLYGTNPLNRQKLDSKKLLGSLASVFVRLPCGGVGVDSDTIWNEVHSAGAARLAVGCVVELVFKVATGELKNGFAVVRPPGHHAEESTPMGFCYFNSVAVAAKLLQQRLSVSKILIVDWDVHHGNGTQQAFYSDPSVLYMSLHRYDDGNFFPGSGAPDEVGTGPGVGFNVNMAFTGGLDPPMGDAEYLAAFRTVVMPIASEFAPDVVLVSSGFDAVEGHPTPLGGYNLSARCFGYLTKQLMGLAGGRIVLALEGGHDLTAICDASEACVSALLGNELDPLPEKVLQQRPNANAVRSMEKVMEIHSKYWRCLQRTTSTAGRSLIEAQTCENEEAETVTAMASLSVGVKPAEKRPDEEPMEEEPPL

Histone deacetylase 9 [8] = target: T2, Histone deacetylase 9 (Homo sapiens, UniProt Q9UKV0); test: Inhibition of recombinant HDAC9 (unknown origin) using AMC labeled AC-peptide as substrate at 10 uM incubated for 1 hr by fluorescence analysis
T2 sequence (Q9UKV0 whole entry): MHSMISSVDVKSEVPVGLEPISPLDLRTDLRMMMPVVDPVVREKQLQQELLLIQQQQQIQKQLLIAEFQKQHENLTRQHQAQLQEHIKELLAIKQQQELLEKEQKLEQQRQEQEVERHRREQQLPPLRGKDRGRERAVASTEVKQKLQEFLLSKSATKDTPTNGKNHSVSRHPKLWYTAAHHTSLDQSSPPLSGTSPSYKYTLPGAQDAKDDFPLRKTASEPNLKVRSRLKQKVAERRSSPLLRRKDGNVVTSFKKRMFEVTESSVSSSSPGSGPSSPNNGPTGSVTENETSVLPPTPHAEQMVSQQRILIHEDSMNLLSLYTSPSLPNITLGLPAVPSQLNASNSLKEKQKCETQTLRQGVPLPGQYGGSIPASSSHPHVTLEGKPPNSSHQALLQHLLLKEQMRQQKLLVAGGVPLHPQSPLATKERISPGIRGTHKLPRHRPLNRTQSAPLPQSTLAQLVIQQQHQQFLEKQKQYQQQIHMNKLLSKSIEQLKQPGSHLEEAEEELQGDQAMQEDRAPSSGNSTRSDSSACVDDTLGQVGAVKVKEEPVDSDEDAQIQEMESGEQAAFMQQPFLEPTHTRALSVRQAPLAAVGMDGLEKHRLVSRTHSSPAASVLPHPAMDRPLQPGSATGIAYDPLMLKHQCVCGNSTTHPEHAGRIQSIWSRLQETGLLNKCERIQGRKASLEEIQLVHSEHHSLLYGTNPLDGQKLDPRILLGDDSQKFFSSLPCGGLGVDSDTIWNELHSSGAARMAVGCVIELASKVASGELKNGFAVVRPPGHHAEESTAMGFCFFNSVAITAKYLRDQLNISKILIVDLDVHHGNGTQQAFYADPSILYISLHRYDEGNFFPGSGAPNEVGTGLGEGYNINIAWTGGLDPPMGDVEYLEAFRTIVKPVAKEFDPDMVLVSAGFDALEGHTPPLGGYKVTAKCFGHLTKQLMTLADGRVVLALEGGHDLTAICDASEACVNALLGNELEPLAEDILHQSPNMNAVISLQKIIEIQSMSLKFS

[9] = target: Histone deacetylase 11 (Homo sapiens) (UniProt Q96DB2); test: Inhibition of recombinant HDAC11 (unknown origin) using AMC labeled AC-peptide as substrate at 10 uM incubated for 1 hr by fluorescence analysis
Histone deacetylase 11 (Homo sapiens), sequence (Q96DB2 whole entry): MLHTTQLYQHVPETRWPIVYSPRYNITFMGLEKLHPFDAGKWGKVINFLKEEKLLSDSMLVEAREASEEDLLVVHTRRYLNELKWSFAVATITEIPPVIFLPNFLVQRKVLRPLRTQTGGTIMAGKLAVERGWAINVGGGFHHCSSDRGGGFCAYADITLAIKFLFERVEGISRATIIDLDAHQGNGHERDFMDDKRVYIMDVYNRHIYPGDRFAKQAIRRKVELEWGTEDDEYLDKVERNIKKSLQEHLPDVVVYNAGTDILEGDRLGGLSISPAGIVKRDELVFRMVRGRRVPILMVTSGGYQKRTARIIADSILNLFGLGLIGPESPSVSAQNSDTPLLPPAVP

A2780 = test: Cytotoxicity against human A2780 cells after 72 hrs by MTT assay; assay type: functional, cell-based; conditions: A2780, 72 h
[10] = Cytotoxicity against human SKOV3 cells after 72 hrs by MTT assay; assay type: functional, cell-based; conditions: SK-OV-3, 72 h
[11] = Cytotoxicity against human SKBR3 cells after 72 hrs by MTT assay; assay type: functional, cell-based; conditions: SK-BR-3, 72 h
HepG2 = test: Cytotoxicity against human HepG2 cells after 72 hrs by MTT assay; assay type: functional, cell-based; conditions: HepG2, 72 h
[12] = Cytotoxicity against human H460 cells after 72 hrs by MTT assay; assay type: functional, cell-based; conditions: NCI-H460, 72 h
[13] = Volume of distribution at steady state in Sprague-Dawley rat at 12 mg/kg, iv administered by bolus injection measured up to 24 hrs by LC-MS/MS analysis; assay type: ADME, organism-based; conditions: in vivo, read-out: Vdss
[14] = AUC (0 to infinity) in Sprague-Dawley rat at 12 mg/kg, iv administered by bolus injection measured up to 24 hrs by LC-MS/MS analysis; assay type: ADME, organism-based; design: dose 12 mg/kg, route intravenous, time infinity; conditions: in vivo
Rattus norvegicus = test: Volume of distribution at steady state in Sprague-Dawley rat at 12 mg/kg, po measured up to 24 hrs by LC-MS/MS analysis; assay type: ADME, organism-based; conditions: in vivo
[15] = Cmax in Sprague-Dawley rat at 12 mg/kg, po measured up to 24 hrs by LC-MS/MS analysis; assay type: ADME, organism-based; design: dose 12 mg/kg, route oral; conditions: in vivo
Ramos [16] = test: Antitumor activity against human Ramos cells xenografted in NOD/SCID mouse assessed as tumor mass change at 40 mg/kg, po q2d for 6 days; assay type: functional
Ramos [17] = test: Antitumor activity against human Ramos cells xenografted in NOD/SCID mouse assessed as tumor mass change at 80 mg/kg, po q2d for 6 days; assay type: functional
Mus musculus [18] = test: Toxicity in Balb/c nude mouse xenografted with human HCT116 cells assessed as change in body weight at 50 mg/kg, iv q2d for 9 days; assay type: organism-based, HCT-116; conditions: in vivo, 216 h
Mus musculus [19] = test: Toxicity in Balb/c nude mouse xenografted with human HCT116 cells assessed as change in body weight at 25 mg/kg, po q2d for 8 days; assay type: organism-based, HCT-116; conditions: in vivo, 192 h
Histone deacetylase 5 = Histone deacetylase 5 (Homo sapiens, UniProt Q9UQL6)
Histone deacetylase 5, sequence (Q9UQL6 whole entry): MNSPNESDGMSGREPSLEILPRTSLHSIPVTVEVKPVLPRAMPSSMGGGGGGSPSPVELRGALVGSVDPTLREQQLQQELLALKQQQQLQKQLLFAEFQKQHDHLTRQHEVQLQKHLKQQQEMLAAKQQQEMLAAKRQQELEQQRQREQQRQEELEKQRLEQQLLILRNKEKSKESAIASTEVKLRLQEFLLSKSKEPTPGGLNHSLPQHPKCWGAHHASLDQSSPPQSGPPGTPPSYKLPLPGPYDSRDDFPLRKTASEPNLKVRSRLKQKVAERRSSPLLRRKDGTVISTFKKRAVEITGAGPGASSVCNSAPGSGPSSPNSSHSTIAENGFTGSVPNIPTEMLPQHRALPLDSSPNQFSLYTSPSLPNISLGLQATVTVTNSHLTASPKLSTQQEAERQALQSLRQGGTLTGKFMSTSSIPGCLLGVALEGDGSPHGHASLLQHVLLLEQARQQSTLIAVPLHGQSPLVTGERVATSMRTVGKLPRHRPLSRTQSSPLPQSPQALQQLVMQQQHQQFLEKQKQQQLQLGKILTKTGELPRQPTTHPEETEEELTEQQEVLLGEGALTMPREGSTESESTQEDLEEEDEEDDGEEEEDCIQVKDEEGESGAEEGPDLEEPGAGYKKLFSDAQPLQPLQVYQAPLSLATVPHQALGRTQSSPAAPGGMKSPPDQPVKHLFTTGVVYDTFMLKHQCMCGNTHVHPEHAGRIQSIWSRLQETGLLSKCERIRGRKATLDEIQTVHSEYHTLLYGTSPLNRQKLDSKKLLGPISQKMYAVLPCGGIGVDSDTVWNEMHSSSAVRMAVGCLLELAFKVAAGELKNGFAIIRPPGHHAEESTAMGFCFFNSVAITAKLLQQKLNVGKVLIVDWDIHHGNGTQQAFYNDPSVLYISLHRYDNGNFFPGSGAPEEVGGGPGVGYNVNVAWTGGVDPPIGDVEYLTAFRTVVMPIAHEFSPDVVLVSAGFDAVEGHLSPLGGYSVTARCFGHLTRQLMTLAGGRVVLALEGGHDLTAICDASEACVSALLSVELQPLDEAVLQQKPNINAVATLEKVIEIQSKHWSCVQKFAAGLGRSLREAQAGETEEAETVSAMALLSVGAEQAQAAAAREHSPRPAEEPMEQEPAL
Description: Inhibition of recombinant HDAC5 (unknown origin) using AMC labeled AC-peptide as substrate incubated for 1 hr by fluorescence analysis

Histone deacetylase 9 [20] = target: T2, Histone deacetylase 9
Description: Inhibition of recombinant HDAC9 (unknown origin) using AMC labeled AC-peptide as substrate incubated for 1 hr by fluorescence analysis

Histone deacetylase 11 = Histone deacetylase 11 (Homo sapiens, UniProt Q96DB2)
Histone deacetylase 11, sequence (Q96DB2 whole entry): as the sequence (Q96DB2 whole entry) above
Description: Inhibition of recombinant HDAC11 (unknown origin) using AMC labeled AC-peptide as substrate incubated for 1 hr by fluorescence analysis

[21] = target: Histone deacetylase 1/2/3 (Homo sapiens) (UniProt Q13547+O15379+Q92769); conditions: MV4-11, 1000 nM
Description: Inhibition of HDAC1/2/3 in human MV4-11 cells assessed as upregulation of histone H3 acetylation at 1000 nM after 6 hrs by Western blot analysis

With `COc1ccc(N(C)c2nc(C)nc3ccccc23)cc1OCCCC(=O)NO` the Activity (Mus musculus [1]) was “Non-toxic”, the Activity (Mus musculus [2]) was “Non-toxic” and the Activity (Mus musculus [3]) was “Non-toxic”. For the same compound, the inhibition (Ramos [4]) was “Dose-dependent effect”, the inhibition [5] was “Dose-dependent effect” and the pEC50 (HeLa [6]) was 5.76. For the same compound, the pIC50 (HeLa [7]) was 7.31, the pIC50 (Histone deacetylase 4) was under 5.00 and the inhibition (Histone deacetylase 9 [8]) was “inactive”. The inhibition [9] was “inactive”, the pIC50 (A2780) was 7.34 and the pIC50 [10] was 7.30. For the same compound, the pIC50 [11] was 7.66, the pIC50 (HepG2) was 7.39 and the pIC50 [12] was 7.26. It also gave a Vd [13] of 61.3 L/kg, an AUC(0-inf) [14] of 2.43 µg·h/mL and a Vdss (Rattus norvegicus) of 154.811 L/kg. The Cmax [15] was 0.238 µg/mL, the Activity (Ramos [16]) was 22.5% and the Activity (Ramos [17]) was 58.79%. For the same compound, the Activity (Mus musculus [18]) was -5.7%, the Activity (Mus musculus [19]) was -3.8% and the pIC50 (Histone deacetylase 5) was under 5.00. For the same compound, the pIC50 (Histone deacetylase 9 [20]) was under 5.00, the pIC50 (Histone deacetylase 11) was under 5.00 and the inhibition [21] was “Active”.
